Test results reported in patent US9376470B2, “Polypeptide having angiogenesis-inducing activity and antibacterial activity, and use thereof for medical purposes” (FunPep Inc., priority 2008, dated 2016).
Peptide text beside a SMILES is read from it.

Experiments:
Type in all cases: cell-based
[1] = test system: Pseudomonas aeruginosa ATCC27853; experiment: Antibacterial activity, ATP assay (BacTiter-Glo); conditions: Table 4-1; ATP assay concentration: peptides 10, TOB 1.0, CPFX 1.0, OX 0.5, MEPM 1.0 μg/ml
Method: (§1) The antibacterial activity of the polypeptides was measured using an ATP assay method. That is, using BacTiter-Glo Microbial Cell Viability Assay kit available from PROMEGA, the antibacterial activity of the peptides was evaluated from the viability of bacteria. […] With respect to the strains, Staphylococcus aureus ATCC29213 (S. aureus ATCC29213) as Gram-positive bacteria, or, alternatively, Pseudomonas aeruginosa (P. aeruginosa ATCC27853) as Gram-negative bacteria, was used. The bacteria were cultured in media for 3 to 4 hours, and thereafter absorbances at A600 were measured. Bacterial suspensions were diluted with Mueller-Hinton broth (MHB) according to McFarland #0.5. Each strain was added so as to attain about 0.5−1×10^5 CFU/mL (final concentration) in terms of Escherichia coli. […] A solution to which the peptides were not added was considered as a negative control, and a solution to which tobramycin (TOB) was added was considered as a positive control. […] Relative values were calculated by comparison with the negative control, and these values were regarded as the viability. ATP (%) of the antibacterial activity was measured in the same manner as mentioned above, and the “minimum inhibitory concentration (MIC)” was measured as follows. MIC is the lowest concentration of an agent that may inhibit the growth of a bacterium. MIC is used as a parameter for the efficacy of an antibacterial agent, for the strength of bacterial sensitivity, or the like. The bacteria can grow (proliferate) when the concentration is not higher than MIC, and cannot grow when the concentration is higher than MIC. Its measurement is carried out according to a method defined as a standard method by Japanese Society of Chemotherapy or CLINICAL AND LABORATORY […] (CLSI), but, in this Example, its measurement was carried out by a broth microdilution method in accordance with “M100-S17/M7-A7” (Performance Standards for Antimicrobial Susceptibility Testing; Seventeenth Informational Supplement, Vol. 27 No. 1) published by CLSI on January, 2007. That is, sensitivity test of agents was carried out using a microtiter plate or test tubes. With respect to each strain, Escherichia coli: ATCC 25922 (Escherichia coli ATCC 25922), Pseudomonas aeruginosa: ATCC 27853 (Pseudomonas aeruginosa ATCC 27853), Staphylococcus aureus: ATCC29213 (Staphylococcus aureus ATCC29213), Klebsiella pneumoniae: JCM 1662 (Klebsiella pneumoniae JCM 1662), enterobacteria (1): JCM 1232 (Enterobacter cloacae JCM 1232), enterobacteria (2): JCM 1235 (Enterobacter aerogenes JCM 1235), and Staphylococcus epidermidis: JCM 2414 (Staphylococcus epidermidis JCM 2414), were used. […] As the concentrations of the agents in ATP assay, the concentrations as described in the Tables were used.

[2] = test system: Klebsiella pneumoniae JCM 1662; experiment: Antibacterial activity, ATP assay (BacTiter-Glo); conditions: ATP assay concentration: peptides 10, TOB 4.0, CPFX 1.0, OX 0.5, MEPM 8.0 μg/ml
Method: (§2) That is, using BacTiter-Glo Microbial Cell Viability Assay kit available from PROMEGA, the antibacterial activity of the peptides was evaluated from the viability of bacteria. […] With respect to the strains, Staphylococcus aureus ATCC29213 (S. aureus ATCC29213) as Gram-positive bacteria, or, alternatively, Pseudomonas aeruginosa (P. aeruginosa ATCC27853) as Gram-negative bacteria, was used. The bacteria were cultured in media for 3 to 4 hours, and thereafter absorbances at A600 were measured. Bacterial suspensions were diluted with Mueller-Hinton broth (MHB) according to McFarland #0.5. Each strain was added so as to attain about 0.5−1×10^5 CFU/mL (final concentration) in terms of Escherichia coli. […] A solution to which the peptides were not added was considered as a negative control, and a solution to which tobramycin (TOB) was added was considered as a positive control. […] Relative values were calculated by comparison with the negative control, and these values were regarded as the viability. […] ATP (%) of the antibacterial activity was measured in the same manner as mentioned above, and the “minimum inhibitory concentration (MIC)” was measured as follows. MIC is the lowest concentration of an agent that may inhibit the growth of a bacterium. MIC is used as a parameter for the efficacy of an antibacterial agent, for the strength of bacterial sensitivity, or the like. The bacteria can grow (proliferate) when the concentration is not higher than MIC, and cannot grow when the concentration is higher than MIC. Its measurement is carried out according to a method defined as a standard method by Japanese Society of Chemotherapy or CLINICAL AND LABORATORY […] (CLSI), but, in this Example, its measurement was carried out by a broth microdilution method in accordance with “M100-S17/M7-A7” (Performance Standards for Antimicrobial Susceptibility Testing; Seventeenth Informational Supplement, Vol. 27 No. 1) published by CLSI on January, 2007. That is, sensitivity test of agents was carried out using a microtiter plate or test tubes. With respect to each strain, Escherichia coli: ATCC 25922 (Escherichia coli ATCC 25922), Pseudomonas aeruginosa: ATCC 27853 (Pseudomonas aeruginosa ATCC 27853), Staphylococcus aureus: ATCC29213 (Staphylococcus aureus ATCC29213), Klebsiella pneumoniae: JCM 1662 (Klebsiella pneumoniae JCM 1662), enterobacteria (1): JCM 1232 (Enterobacter cloacae JCM 1232), enterobacteria (2): JCM 1235 (Enterobacter aerogenes JCM 1235), and Staphylococcus epidermidis: JCM 2414 (Staphylococcus epidermidis JCM 2414), were used. […] As the concentrations of the agents in ATP assay, the concentrations as described in the Tables were used.

[3] = test system: Escherichia coli ATCC 25922; experiment: Antibacterial activity, ATP assay (BacTiter-Glo); conditions: ATP assay concentration: peptides 10, TOB 1.0, CPFX 0.015, OX 0.5, MEPM 0.1 μg/ml
Method: as §2

[4] = test system: Staphylococcus epidermidis JCM 2414; experiment: Antibacterial activity, ATP assay (BacTiter-Glo); conditions: ATP assay concentration: peptides 10, TOB 1.0, CPFX 0.5, OX 0.5, MEPM 0.125 μg/ml
Method: as §2

[5] = test system: Enterobacteria (2): Enterobacter aerogenes JCM 1235; experiment: Antibacterial activity, ATP assay (BacTiter-Glo); conditions: ATP assay concentration: peptides 10, TOB 4.0, CPFX 1.0, OX 4.0, MEPM 8.0 μg/ml
Method: as §2

[6] = test system: Staphylococcus aureus ATCC29213; experiment: Antibacterial activity, ATP assay (BacTiter-Glo); conditions: 10 μg/mL, ATP assay
Method: as §1

[7] = test system: human vascular endothelial cells and fibroblast cells (co-culture); experiment: Lumen formation with angiogenesis kit KZ-1000 (section 7); conditions: day 11
Method: Using an angiogenesis kit available from KURABO […] LTD. (Product No.: KZ-1000), lumen formation by the polypeptides was evaluated. Vascular endothelial growth factor A (VEGF-A) as a positive control, and polypeptide-free, unstimulated group as a negative control, were used.
Using a special medium for angiogenesis which was attached to the kit, each polypeptide was prepared such that the concentration thereof was respectively 0.5, 2.5 and 10 μg/mL. To a 24-well plate in which cells were plated (the cells were those obtained by co-culturing human vascular endothelial cells and fibroblast cells at an optimum concentration) which was attached to the kit, the special medium for angiogenesis containing each polypeptide was added, and the cells were cultured at 37° C. under 5% CO2. The medium was replaced with a medium containing the same additive on day 4, day 7 and day 9 of culture. On day 11 from the beginning of the culture, staining was performed using a kit for staining lumina (for CD31 antibody staining) according to the following procedure.
The media were removed, and washing was performed with Dulbecco's phosphate buffered saline (PBS(−)). Thereafter, ice-cooled 70% ethanol was added to the plate, and the cells were fixed. Each well was washed with a blocking solution (Dulbecco's phosphate buffered saline (PBS(−)) containing 1% BSA). To each well, 0.5 mL of the primary antibody for CD31 staining (mouse anti-human CD31 antibody) 4000-fold diluted with the blocking solution was added, and then the plate was incubated for 60 minutes at 37° C. After the completion of the incubation, each well was washed totally 3 times with 1 mL of the blocking solution. Then, 0.5 mL of the secondary antibody solution (goat anti-mouse IgG/alkaline phosphatase conjugate) 500-fold diluted with the blocking solution was added to each well. The plate was incubated for 60 minutes at 37° C., and thereafter each well was washed 3 times with 1 mL of distilled water. During that period, 2 tablets of BCIP/NBT were dissolved into distilled water, and the obtained solution was filtered through a filter having a pore size of […] to prepare a substrate solution. To each well, 0.5 mL of the prepared BCIP/NBT substrate solution was added, and the plate was incubated at 37° C. until the lumina turned to deep purple (typically for 5-10 minutes). After the completion of the incubation, each well was washed 3 times with 1 mL of distilled water. After washing, the washing solution was removed by aspiration, and the plate was left to stand and dry naturally. After drying, photographs of each well were taken under a microscope.
Each of the obtained images was quantified using an angiogenesis quantification software. The area and length of formed lumina observed in each visual field were measured on the basis of the scale of an angiogenesis quantification software available from KURABO […] LTD. (angiogenesis quantification software Ver 1.0), and evaluated on the basis of the ratio of the area or length of polypeptide-containing groups relative to the area or length of the negative control group.

[8] = VEGF-A positive control, concentration not given

With O=C(O)c1cn(C2CC2)c2cc(N3CCNCC3)c(F)cc2c1=O [CPFX, ciprofloxacin, reference compound] the “ATP (%) mean, Pseudomonas aeruginosa” value [1] was 2.3%, the “ATP (%) mean, Klebsiella pneumoniae” value [2] was 8.2% and the “ATP (%) mean, Escherichia coli” value [3] was 15.4%. The “ATP (%) mean, Staphylococcus epidermidis” value [4] was 7.3% and the “ATP (%) mean, Enterobacteria (2)” value [5] was 3.2%.

For CSCC[C@H](N)C(=O)N[C@@H](CCCNC(=N)N)C(=O)N[C@@H](CCCCN)C(=O)N[C@@H](CCCNC(=N)N)C(=O)N[C@@H](CC(C)C)C(=O)N[C@@H](CCCCN)C(=O)N[C@@H](CCCNC(=N)N)C(=O)N[C@@H](CCCCN)C(=O)N[C@@H](CC(C)C)C(=O)N[C@@H](CCCNC(=N)N)C(=O)N[C@@H](CC(C)C)C(=O)N[C@@H](Cc1c[nH]c2ccccc12)C(=O)N[C@@H](Cc1c[nH]cn1)C(=O)N[C@@H](CCCNC(=N)N)C(=O)N[C@@H](CCCCN)C(=O)N[C@@H](CCCNC(=N)N)C(=O)N[C@@H](Cc1ccc(O)cc1)C(=O)N[C@@H](CCCCN)C(N)=O [SR-6] (H-MRKRLKRKLRLWHRKRYK-NH2; N-terminus assumed), the “antibacterial activity against Staphylococcus aureus compared with AG30-5C” value [6] was “higher antibacterial activity against Staphylococcus aureus than AG30-5C”, the “The Area of Lumina (relative value, negative control as 100)” value ([7]; polypeptide 0.5 μg/mL) was 97.3 and the “The Length of Lumina (relative value, negative control as 100)” value ([7]; polypeptide 0.5 μg/mL) was 98.4. The “The Area of Lumina (relative value, negative control as 100)” value ([7]; polypeptide 10 μg/mL) was 98.6 and the “The Length of Lumina (relative value, negative control as 100)” value ([7]; polypeptide 10 μg/mL) was 96.6.

In the case of “Vascular endothelial growth factor A [VEGF-A]”, the “The Area of Lumina (relative value, negative control as 100)” value [7, 8] is reported as 189.2 and the “The Length of Lumina (relative value, negative control as 100)” value [7, 8] is reported as 169.8.
